Assay results reported in ChEMBL document CHEMBL4507280 (2021).

Experiments:
[1] = biological target: Mitogen-activated protein kinase 9 (Homo sapiens) (UniProt P45984); settings: Compound concentration 1000.0 nM
[2] = biological target: 5'-AMP-activated protein kinase catalytic subunit alpha-1 (Homo sapiens) (UniProt Q13131); settings: Compound concentration 1000.0 nM
[3] = biological target: Cyclin-dependent kinase-like 3 (Homo sapiens) (UniProt Q8IVW4); settings: Compound concentration 1000.0 nM
[4] = biological target: Beta-2 adrenergic receptor (Homo sapiens) (UniProt P07550); assay: BETA2/HU Eurofins-Panlabs selectivity data (BI); settings: Compound concentration 10.0 uM
[5] = biological target: T1, Alpha-1A adrenergic receptor (Homo sapiens) (UniProt P35348); assay: ALPHA1A/R Eurofins-Panlabs selectivity data (BI); settings: Rattus norvegicus; Compound concentration 10.0 uM
T1 sequence (whole entry): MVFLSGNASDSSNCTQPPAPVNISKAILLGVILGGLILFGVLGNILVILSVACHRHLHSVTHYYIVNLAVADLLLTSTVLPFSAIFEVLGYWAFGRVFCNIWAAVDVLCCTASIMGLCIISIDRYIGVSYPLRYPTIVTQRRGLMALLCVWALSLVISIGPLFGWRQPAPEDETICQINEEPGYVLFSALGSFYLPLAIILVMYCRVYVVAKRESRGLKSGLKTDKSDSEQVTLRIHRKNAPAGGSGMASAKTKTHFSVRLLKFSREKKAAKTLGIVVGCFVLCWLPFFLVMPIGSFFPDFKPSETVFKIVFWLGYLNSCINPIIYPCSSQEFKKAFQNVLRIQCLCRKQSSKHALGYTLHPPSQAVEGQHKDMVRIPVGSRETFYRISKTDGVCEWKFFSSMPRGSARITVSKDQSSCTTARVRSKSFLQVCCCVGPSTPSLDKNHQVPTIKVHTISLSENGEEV

[6] = biological target: Adenosine receptor A2a (Homo sapiens) (UniProt P29274); assay: A2A/HU Eurofins-Panlabs selectivity data (BI); settings: Compound concentration 10.0 uM
[7] = biological target: Activin receptor type-2B (Homo sapiens) (UniProt Q13705); settings: Compound concentration 1000.0 nM
[8] = biological target: Serine/threonine-protein kinase MARK1 (Homo sapiens) (UniProt Q9P0L2); settings: Compound concentration 1000.0 nM
[9] = biological target: Acetylcholine receptor subunit alpha (Homo sapiens) (UniProt P02708); assay: NACH/H Eurofins-Panlabs selectivity data (BI); settings: Compound concentration 10.0 uM
[10] = biological target: Cyclin-dependent kinase 2 (Homo sapiens) (UniProt P24941); settings: Compound concentration 1000.0 nM
[11] = test system: Receptor-type tyrosine-protein kinase FLT3 (Homo sapiens), P36888 [UNDEFINED MUTATION]; settings: Compound concentration 1000.0 nM
[12] = biological target: Serine/threonine-protein kinase N1 (Homo sapiens) (UniProt Q16512); settings: Compound concentration 1000.0 nM
[13] = biological target: Proto-oncogene tyrosine-protein kinase ROS (Homo sapiens) (UniProt P08922); settings: Compound concentration 1000.0 nM
[14] = test system: Serine/threonine-protein kinase B-raf (Homo sapiens), P15056 [V600E]; settings: Compound concentration 1000.0 nM
[15] = biological target: Gamma-aminobutyric acid receptor subunit alpha-1 (Rattus norvegicus) (UniProt P62813); assay: GABAACENTR Eurofins-Panlabs selectivity data (BI); settings: Compound concentration 10.0 uM
[16] = biological target: Homeodomain-interacting protein kinase 3 (Homo sapiens) (UniProt Q9H422); settings: Compound concentration 1000.0 nM
[17] = biological target: NUAK family SNF1-like kinase 1 (Homo sapiens) (UniProt O60285); settings: Compound concentration 1000.0 nM
[18] = biological target: Pyroglutamylated RF-amide peptide receptor (Homo sapiens) (UniProt Q96P65); assay: GPR103 Eurofins-Panlabs selectivity data (BI); settings: Compound concentration 10.0 uM
[19] = biological target: 5-hydroxytryptamine receptor 1E (Homo sapiens) (UniProt P28566); settings: Compound concentration 10.0 uM
[20] = biological target: Platelet-derived growth factor receptor beta (Homo sapiens) (UniProt P09619); settings: Compound concentration 1000.0 nM
[21] = biological target: Mitogen-activated protein kinase kinase kinase kinase 5 (Homo sapiens) (UniProt Q9Y4K4); settings: Compound concentration 1000.0 nM
[22] = biological target: Gamma-aminobutyric acid receptor subunit alpha-1 (Rattus norvegicus) (UniProt P62813); assay: GABAA MUSCIMOL CENT Eurofins-Panlabs selectivity data (BI); settings: Compound concentration 10.0 uM
[23] = biological target: Serine/threonine-protein kinase Chk1 (Homo sapiens) (UniProt O14757); settings: Compound concentration 1000.0 nM
[24] = biological target: Mitogen-activated protein kinase kinase kinase 5 (Homo sapiens) (UniProt Q99683); settings: Compound concentration 1000.0 nM
[25] = biological target: T2, Muscarinic acetylcholine receptor M2 (Homo sapiens) (UniProt P08172); assay: M2/HU Eurofins-Panlabs selectivity data (BI); settings: Compound concentration 10.0 uM
T2 sequence (whole entry): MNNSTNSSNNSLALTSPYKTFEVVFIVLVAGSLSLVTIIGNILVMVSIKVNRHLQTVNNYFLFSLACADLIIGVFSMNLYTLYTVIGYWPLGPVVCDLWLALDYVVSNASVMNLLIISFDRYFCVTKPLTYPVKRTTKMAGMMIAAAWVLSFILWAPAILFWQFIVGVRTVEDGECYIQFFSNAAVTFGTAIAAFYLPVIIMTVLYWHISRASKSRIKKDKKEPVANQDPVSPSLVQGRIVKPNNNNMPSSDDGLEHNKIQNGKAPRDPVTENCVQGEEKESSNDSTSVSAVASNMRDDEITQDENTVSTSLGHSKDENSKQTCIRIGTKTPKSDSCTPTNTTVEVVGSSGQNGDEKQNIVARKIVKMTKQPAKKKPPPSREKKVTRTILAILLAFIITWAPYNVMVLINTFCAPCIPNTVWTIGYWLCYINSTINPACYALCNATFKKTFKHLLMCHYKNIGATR

[26] = biological target: Fibroblast growth factor receptor 4 (Homo sapiens) (UniProt P22455); settings: Compound concentration 1000.0 nM
[27] = biological target: SRSF protein kinase 3 (Homo sapiens) (UniProt Q9UPE1); settings: Compound concentration 1000.0 nM
[28] = biological target: Casein kinase I isoform alpha (Homo sapiens) (UniProt P48729); settings: Compound concentration 1000.0 nM
[29] = biological target: Dual specificity mitogen-activated protein kinase kinase 2 (Homo sapiens) (UniProt P36507); settings: Compound concentration 1000.0 nM
[30] = biological target: Delta-type opioid receptor (Homo sapiens) (UniProt P41143); settings: Compound concentration 10.0 uM
[31] = biological target: Alpha-2A adrenergic receptor (Homo sapiens) (UniProt P08913); settings: Compound concentration 10.0 uM
[32] = test system: Tyrosine-protein kinase ABL1 (Homo sapiens), P00519 [F317I]; settings: Compound concentration 1000.0 nM
[33] = biological target: NUAK family SNF1-like kinase 2 (Homo sapiens) (UniProt Q9H093); settings: Compound concentration 1000.0 nM

Chain of Homeodomain-interacting protein kinase 3 (Homo sapiens) (Q9H422 whole entry, looked up): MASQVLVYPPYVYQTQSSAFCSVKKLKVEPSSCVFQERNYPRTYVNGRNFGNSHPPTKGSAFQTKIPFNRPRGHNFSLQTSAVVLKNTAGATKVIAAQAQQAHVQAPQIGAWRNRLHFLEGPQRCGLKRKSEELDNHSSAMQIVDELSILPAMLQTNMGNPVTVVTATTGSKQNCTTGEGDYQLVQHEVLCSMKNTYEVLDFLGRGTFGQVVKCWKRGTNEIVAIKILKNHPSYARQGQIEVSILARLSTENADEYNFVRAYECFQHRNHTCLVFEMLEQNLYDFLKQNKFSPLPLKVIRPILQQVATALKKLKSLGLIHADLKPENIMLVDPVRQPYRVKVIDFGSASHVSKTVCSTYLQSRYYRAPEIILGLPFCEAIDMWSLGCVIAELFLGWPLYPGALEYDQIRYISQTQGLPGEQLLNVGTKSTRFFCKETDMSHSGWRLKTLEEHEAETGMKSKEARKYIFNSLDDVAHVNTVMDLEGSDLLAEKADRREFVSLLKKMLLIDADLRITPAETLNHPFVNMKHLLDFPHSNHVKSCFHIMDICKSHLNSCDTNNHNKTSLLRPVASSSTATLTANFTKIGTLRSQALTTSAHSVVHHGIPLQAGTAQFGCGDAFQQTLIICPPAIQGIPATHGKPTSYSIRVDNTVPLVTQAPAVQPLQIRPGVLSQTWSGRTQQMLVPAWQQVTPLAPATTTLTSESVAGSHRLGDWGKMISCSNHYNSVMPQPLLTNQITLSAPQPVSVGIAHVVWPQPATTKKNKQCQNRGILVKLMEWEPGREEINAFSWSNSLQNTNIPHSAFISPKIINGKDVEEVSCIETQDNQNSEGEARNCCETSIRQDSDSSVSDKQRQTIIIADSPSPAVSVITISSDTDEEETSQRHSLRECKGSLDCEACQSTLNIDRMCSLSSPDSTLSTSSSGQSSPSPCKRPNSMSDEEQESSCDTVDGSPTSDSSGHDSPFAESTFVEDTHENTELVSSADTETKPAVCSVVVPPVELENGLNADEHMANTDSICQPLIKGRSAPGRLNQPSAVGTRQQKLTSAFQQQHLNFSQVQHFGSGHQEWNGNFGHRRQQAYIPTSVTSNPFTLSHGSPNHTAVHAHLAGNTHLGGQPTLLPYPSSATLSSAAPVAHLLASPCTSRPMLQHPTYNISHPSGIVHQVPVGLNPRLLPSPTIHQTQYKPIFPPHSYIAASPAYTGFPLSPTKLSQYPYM
Chain of Mitogen-activated protein kinase 9 (Homo sapiens) (P45984 whole entry, looked up): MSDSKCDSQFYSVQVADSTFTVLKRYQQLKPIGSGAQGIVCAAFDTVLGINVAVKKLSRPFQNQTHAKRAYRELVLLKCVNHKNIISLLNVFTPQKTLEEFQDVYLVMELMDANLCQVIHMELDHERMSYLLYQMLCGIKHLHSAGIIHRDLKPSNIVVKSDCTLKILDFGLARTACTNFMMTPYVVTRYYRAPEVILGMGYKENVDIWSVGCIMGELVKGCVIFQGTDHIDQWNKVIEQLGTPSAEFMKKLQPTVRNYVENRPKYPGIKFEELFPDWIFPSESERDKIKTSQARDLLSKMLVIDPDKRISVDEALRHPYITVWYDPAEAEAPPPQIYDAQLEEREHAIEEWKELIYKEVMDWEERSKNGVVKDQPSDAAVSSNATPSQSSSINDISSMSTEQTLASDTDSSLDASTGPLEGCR
Chain of Proto-oncogene tyrosine-protein kinase ROS (Homo sapiens) (P08922 whole entry): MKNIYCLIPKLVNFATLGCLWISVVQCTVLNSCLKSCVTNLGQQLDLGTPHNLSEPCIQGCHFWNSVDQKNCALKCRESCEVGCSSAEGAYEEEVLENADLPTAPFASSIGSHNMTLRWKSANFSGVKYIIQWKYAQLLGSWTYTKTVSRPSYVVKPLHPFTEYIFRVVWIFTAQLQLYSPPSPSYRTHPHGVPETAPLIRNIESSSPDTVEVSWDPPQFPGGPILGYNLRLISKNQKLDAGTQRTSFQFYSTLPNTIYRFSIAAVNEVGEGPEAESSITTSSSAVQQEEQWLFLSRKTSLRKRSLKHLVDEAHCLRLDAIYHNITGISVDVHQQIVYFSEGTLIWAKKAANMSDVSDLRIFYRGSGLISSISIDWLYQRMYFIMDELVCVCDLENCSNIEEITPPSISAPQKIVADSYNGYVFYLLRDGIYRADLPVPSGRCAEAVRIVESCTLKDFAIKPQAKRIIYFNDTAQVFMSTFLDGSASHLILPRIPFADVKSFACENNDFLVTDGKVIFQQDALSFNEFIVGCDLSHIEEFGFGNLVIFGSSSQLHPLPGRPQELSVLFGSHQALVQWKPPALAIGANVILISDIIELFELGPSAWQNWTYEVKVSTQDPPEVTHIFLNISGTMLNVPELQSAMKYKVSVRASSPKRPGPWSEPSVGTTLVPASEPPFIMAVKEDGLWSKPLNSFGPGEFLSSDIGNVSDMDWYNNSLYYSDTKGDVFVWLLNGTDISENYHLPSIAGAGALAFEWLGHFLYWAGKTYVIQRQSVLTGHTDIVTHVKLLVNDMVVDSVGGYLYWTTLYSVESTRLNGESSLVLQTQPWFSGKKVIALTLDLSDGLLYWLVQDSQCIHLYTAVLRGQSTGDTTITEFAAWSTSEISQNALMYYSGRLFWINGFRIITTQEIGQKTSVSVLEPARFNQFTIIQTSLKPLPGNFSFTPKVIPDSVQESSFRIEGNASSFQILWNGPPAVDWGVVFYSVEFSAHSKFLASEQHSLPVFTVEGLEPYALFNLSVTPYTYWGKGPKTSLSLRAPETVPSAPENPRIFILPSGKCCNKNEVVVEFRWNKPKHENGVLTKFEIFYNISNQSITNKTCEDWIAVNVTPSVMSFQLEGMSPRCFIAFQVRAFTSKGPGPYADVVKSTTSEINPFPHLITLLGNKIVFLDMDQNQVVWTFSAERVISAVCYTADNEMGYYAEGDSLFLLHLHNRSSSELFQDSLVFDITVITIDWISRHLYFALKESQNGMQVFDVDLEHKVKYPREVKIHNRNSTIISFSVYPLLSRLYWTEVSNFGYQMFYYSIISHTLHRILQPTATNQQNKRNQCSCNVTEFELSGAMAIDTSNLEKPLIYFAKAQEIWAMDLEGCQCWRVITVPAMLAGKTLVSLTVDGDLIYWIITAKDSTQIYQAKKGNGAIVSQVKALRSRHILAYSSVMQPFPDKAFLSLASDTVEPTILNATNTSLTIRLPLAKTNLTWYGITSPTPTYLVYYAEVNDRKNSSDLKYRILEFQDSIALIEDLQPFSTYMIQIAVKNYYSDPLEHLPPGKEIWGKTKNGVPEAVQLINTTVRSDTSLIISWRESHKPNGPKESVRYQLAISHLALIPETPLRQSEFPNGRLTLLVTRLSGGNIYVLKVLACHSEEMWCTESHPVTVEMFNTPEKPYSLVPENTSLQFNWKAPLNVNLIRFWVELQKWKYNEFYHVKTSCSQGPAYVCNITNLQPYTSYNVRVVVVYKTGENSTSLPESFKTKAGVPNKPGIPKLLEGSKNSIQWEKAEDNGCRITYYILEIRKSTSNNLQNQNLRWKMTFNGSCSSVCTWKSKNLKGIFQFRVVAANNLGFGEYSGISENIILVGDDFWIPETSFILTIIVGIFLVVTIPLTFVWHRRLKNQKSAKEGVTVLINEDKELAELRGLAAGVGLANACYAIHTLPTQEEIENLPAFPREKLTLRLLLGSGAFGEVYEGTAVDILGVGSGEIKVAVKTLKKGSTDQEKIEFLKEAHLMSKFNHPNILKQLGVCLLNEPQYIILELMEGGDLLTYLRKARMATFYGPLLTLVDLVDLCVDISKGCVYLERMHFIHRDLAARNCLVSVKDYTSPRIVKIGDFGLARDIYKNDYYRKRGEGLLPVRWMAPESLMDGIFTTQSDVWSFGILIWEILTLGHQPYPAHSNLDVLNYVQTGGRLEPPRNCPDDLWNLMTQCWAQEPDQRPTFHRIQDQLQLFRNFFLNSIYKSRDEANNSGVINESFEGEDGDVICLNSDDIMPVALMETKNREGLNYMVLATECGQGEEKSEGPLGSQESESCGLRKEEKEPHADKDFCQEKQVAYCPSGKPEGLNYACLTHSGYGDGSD
Chain of Serine/threonine-protein kinase N1 (Homo sapiens) (Q16512 2-942 limits assumed): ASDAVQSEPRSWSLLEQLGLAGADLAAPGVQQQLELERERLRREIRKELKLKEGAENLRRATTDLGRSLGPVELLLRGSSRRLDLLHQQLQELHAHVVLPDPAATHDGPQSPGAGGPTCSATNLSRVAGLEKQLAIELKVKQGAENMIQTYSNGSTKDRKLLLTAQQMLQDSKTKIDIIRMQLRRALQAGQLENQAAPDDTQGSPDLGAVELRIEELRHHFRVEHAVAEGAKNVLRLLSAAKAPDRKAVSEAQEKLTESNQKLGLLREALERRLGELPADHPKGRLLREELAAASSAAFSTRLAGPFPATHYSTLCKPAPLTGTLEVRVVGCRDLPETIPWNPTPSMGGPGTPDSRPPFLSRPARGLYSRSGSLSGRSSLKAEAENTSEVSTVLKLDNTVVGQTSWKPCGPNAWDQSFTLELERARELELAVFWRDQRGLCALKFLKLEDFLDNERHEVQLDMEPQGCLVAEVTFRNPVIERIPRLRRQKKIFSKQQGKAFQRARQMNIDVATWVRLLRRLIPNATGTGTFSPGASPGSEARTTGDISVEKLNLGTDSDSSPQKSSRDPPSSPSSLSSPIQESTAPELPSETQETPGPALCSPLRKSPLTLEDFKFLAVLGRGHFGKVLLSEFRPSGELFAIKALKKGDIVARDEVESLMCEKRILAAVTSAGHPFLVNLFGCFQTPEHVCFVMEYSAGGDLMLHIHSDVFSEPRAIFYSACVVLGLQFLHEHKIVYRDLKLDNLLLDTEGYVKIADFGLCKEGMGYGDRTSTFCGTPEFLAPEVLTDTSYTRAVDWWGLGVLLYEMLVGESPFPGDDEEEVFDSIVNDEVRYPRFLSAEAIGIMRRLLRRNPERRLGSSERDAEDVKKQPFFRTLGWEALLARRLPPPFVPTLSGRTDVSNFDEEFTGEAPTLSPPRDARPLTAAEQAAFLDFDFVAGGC

CCC(=O)N[C@H]1CC[C@@H](C(=O)N(C)c2ccc(-c3nc4ccccc4o3)cc2)C1 [BI 99179]
inactive: residual activity [1] 79% | residual activity [2] 99% | residual activity [3] 100% | residual activity [4] 100% | residual activity [5] 83% | residual activity [6] 90% | residual activity [7] 100% | residual activity [8] 100% | residual activity [9] 113% | residual activity [10] 100% | residual activity [11] 84% | residual activity [12] 83% | residual activity [13] 93% | residual activity [14] 96% | residual activity [15] 92% | residual activity [16] 74% | residual activity [17] 100% | residual activity [18] 101% | inhibition [19] -3.14% | residual activity [20] 89% | residual activity [21] 100% | residual activity [22] 96% | residual activity [23] 100% | residual activity [24] 100% | residual activity [25] 90% | residual activity [26] 100% | residual activity [27] 100% | residual activity [28] 82%

CCC(=O)N[C@@H]1CC[C@H](C(=O)N(C)c2ccc(-c3nc4ccccc4o3)cc2)C1 [BI 99990]
inactive: residual activity [1] 98% | residual activity [29] 100% | residual activity [2] 91% | residual activity [3] 79% | residual activity [7] 96% | residual activity [8] 86% | residual activity [10] 100% | residual activity [11] 76% | residual activity [12] 84% | residual activity [13] 100% | residual activity [14] 100% | inhibition [30] -0.0188% | inhibition [31] 11.2% | residual activity [16] 76% | residual activity [17] 100% | inhibition [19] -5.68% | residual activity [20] 98% | residual activity [21] 91% | residual activity [23] 100% | residual activity [24] 100% | residual activity [26] 89% | residual activity [27] 100% | residual activity [32] 87% | residual activity [28] 100% | residual activity [33] 100%
